Here are results for six compounds from paper PMC7076710, “Synthesis, Identification, and Structure–Activity Relationship Analysis of GATA4 and NKX2-5 Protein–Protein Interaction Modulators” (Journal of Medicinal Chemistry, 2019).

What all share (assay type): cell-based
In series [1] the target is T1, GATA4–NKX2-5 transcriptional synergy (Mus musculus, UniProt P42582+Q08369).
T1 construct: expressed in transfected cells; host or cells: COS-1
The experiment in a line: GATA4–NKX2-5 transcriptional synergy luciferase reporter assay (3xNKE reporter, COS-1 cells). The note with it: COS-1; 3 µM; luciferase reporter activity relative to control. In general terms: In a reporter assay the amount or activity of a reporter protein is the signal.

The target of series [2] is T2, NKX2-5 transcriptional activity (Mus musculus, UniProt P42582).
T2 construct: expressed in transfected cells; host or cells: COS-1
T2 sequence (P42582 whole entry): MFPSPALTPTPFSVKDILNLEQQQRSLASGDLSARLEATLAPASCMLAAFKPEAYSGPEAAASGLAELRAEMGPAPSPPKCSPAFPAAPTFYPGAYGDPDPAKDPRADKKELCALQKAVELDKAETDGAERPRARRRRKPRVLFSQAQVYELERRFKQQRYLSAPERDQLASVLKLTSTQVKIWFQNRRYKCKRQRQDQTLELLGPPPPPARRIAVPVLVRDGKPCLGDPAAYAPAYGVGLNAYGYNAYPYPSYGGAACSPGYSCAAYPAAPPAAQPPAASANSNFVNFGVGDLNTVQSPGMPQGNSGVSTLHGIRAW
The experiment in a line: NKX2-5 luciferase reporter assay (3xNKE reporter, COS-1 cells). Particulars: COS-1; 3 µM; luciferase reporter activity relative to control; read-out: NKX.3µM. The procedure:
(§1) To screen compounds for the GATA4–NKX2-5 interaction, we have developed a luciferase reporter assay based on their property to activate gene transcription synergistically through the NKX2-5 binding site on DNA.[28] In this assay, we transfected mammalian COS-1 cells with protein expression vectors for GATA4 and NKX2-5 proteins together with artificial luciferase reporter vector containing three high affinity binding sites for NKX2-5 (NKE). […] All 257 compounds were tested in two concentrations, 3 and 10 μM. Compounds either inhibited, enhanced, or had no effect on the GATA4–NKX2-5 transcriptional synergy. To investigate the selectivity of the active compounds, we tested their effects on NKX2-5 transcriptional activity by using the same luciferase reporter vector as in transcriptional synergy assay with three NKE sites (Figure 3B). Furthermore, we used GATA luciferase reporter assay to examine if compounds have an effect on GATA4 transcriptional activity. In this assay, we cotransfected the cells with a GATA4 protein expression vector and a reporter vector with tandem GATA4 binding sites (Figure 3C). Previously we have reported that compound 1 inhibited the GATA4–NKX2-5 transcriptional synergy at micromolar concentrations (IC50 = 3 μM).[29]
(§2) The plasmids expressing mouse GATA4 protein, pMT2-GATA4, and empty pMT2 were gifts from D. B. Wilson (Department of Pediatrics, St. Louis Children’s Hospital, St. Louis, MO).[44] The plasmids expressing mouse NKX2-5 protein, pMT2-NKX2-5, have been described earlier.[28] The luciferase reporter plasmid used in GATA4–NKX2-5 transcriptional synergy assay and NKX transcriptional assay, pGL3-3xHA, contains three high affinity binding sites for NKX2-5.[28] The luciferase reporter plasmid used in GATA transcriptional assay, NP-112, contains tandem GATA-sites and minimal promoter of rat brain natriuretic peptide (BNP) gene.[45] The pGL3-BNP luciferase reporter containing −534/+4 bp rat BNP proximal promoter described previously was used in hypertrophy assay.[46]
(§3) The primary screening assay of compounds’ effect on GATA4–NKX2-5 transcriptional synergy and COS-1 cell culturing has been described earlier.[33] […] (Kinnunen et al., unpublished observation). Briefly, COS-1 cells were seeded at 14 000 cells/well in Isoplate-96 microplates (PerkinElmer, Turku, Finland) and grown overnight. The cells were transfected with the luciferase reporter plasmid pGL3-3xHA 100 ng/well and equal amounts of expression plasmids pMT2-GATA4 and pMT2-NKX2-5 total 50 ng/well. To verify the synergistic effect, the cells were transfected with pMT2-GATA4 or pMT2-NKX2-5 25 ng/well, and the total DNA concentration was adjusted to 50 ng/well with empty pMT2 plasmid. In NKX2-5 and GATA4 luciferase reporter assays, the cells were transfected with reporter plasmid pGL3-3xHA or NP-112 (100 ng/well) and expression plasmid pMT2-NKX2-5 or pMT2-GATA4 (25 ng/well). The ratio of DNA/transfection reagent (Fugene 6, Promega) was 1:3 in all assays. The transfections were performed in serum and antibiotics free media for 6 h. The cells were treated with compounds or vehicle (0.1% DMSO) for 24 h, and the luminescence was measured using neolite Reporter Gene Assay System (PerkinElmer, Turku, Finland) and Victor2 plate reader (PerkinElmer, Turku, Finland).
(§4) Raw luciferase data were analyzed in Excel, and clear outliers were removed from triplicates by using the Grubb’s test. Data analysis was performed using R.[49] The luciferase data were first normalized on the basis of the combined mean value of controls. For data visualization and creation of figures, the following R packages were used: ggplot2, cowplot, RColorBrewer, and pheatmap. The heatmaps of the toxicity data were produced with GraphPad Prism 7.00 (GraphPad Software, La Jolla, CA). Statistical significance of luciferase reporter assay data was evaluated by randomized block analysis of variance followed by Dunnett’s post hoc test. […]

Series [3] addresses T3, GATA4 transcriptional activity (Mus musculus, UniProt Q08369).
T3 construct: expressed in transfected cells; host or cells: COS-1
The experiment in a line: GATA4 luciferase reporter assay (tandem GATA-site reporter, COS-1 cells). Here is the method:
as §1, §2, §3, §4

In series [4] the test system is COS-1 cells. In words: LDH assay (necrosis). The text has this: (§5) To investigate the toxicity as a potential cause of decreased or increased activity in luciferase reporter gene assays, we tested a set of 40 active compounds in the COS-1 cell line used for the luciferase assays. Concentration-dependent toxic effects were investigated using the lactate dehydrogenase (LDH) assay to detect necrosis and the 3-(4,5-dimethylthiazol-2-yl)-2,5-diphenyltetrazolium bromide (MTT) assay as a measure of cell viability. […] For the data analysis, compounds were classified as toxic (Figures 5 and 7) if they induced a >10% decrease in cell viability in the MTT assay at the concentration of 10 μM. The most toxic compounds (35a, 35d, 54, 58, and 63–65) in the MTT assay all contained a phenyl substituent in the southern part ring, while the ortho-nitrophenyl-derivative 39g and the phenyl-substituted thiophene 47t were nontoxic. Higher flexibility in the central parts of the ethers (35a, 35d) and N-acylated amines (58, 64) might contribute to their toxicity, because less rigid compounds are more likely to have affinity to various biological targets. Such interactions can cause toxicity. To confirm and validate the results from MTT assays, we tested three nontoxic (2, 47s, and 72) and three toxic (1, 35a, and 58) compounds in a cell viability assay measuring intracellular ATP content.
(§6) Figure 5 Effects of selected compounds on COS-1 cell viability. (A) Compound-induced necrosis was quantified with the LDH assay after a 24-h compound exposure. The data are presented as cytotoxicity percentage (% of maximal LDH release). (B) Cell viability was analyzed with the MTT assay after a 24-h compound exposure. (A,B) The data are means from 2–3 independent experiments with 3 replicate wells in each and are presented as % of control (vehicle-treated cells). The compounds have been grouped on the basis of the structure of the central part: a, amide; b, ether; c, N-acylated amine; d, amine; and e, imine. (C) The effects of selected compounds on cell viability as determined by ATP content after a 24-h compound exposure. The data are mean + SEM from three independent experiments and are presented as % of vehicle-treated cells.
(§7) For toxicity screening, COS-1 cells were cultured in DMEM (Sigma-Aldrich, Steinheim, Germany) supplemented with 10% fetal bovine serum, 100 U/mL penicillin, and 100 μg/mL streptomycin (all from Gibco, Thermo Scientific) at 37 °C with 5% CO2. The cells were plated on 96-well plates at 10 000 cells/well and exposed to test compounds at a concentration range of 1–30 μM on the following day. After a 24-h compound treatment, lactate dehydrogenase (LDH) and 3-(4,5-dimethylthiazol-2-yl)-2,5-diphenyltetrazolium bromide (MTT) assays were carried out as described previously.[48] Briefly, LDH activity was determined from 50 μL samples of cell culture medium, to which 50 μL of substrate solution [1.3 mM β-nicotinamide-adenine dinucleotide, 660 μM iodonitrotetrazolium, 54 mM L(+)-lactic acid, and 280 μM phenazine methosulfate in 0.2 M Tris-HCl, pH 8.2, all from Sigma-Aldrich] was added, and the plate was incubated for 30 min at room temperature. The reaction was stopped with acetic acid (final concentration 333 mM), and absorbance was measured at 490 nm. The absorbance values of the samples were normalized to maximal LDH release and spontaneous LDH release determined on the same plate. Mitochondrial metabolic activity was quantified by incubating the cells with 0.5 mg/mL MTT (from Sigma-Aldrich) for 2 h at 37 °C with 5% CO2, whereafter culture medium was removed and formazan crystals were dissolved in DMSO. The absorbance was measured at 550 nm, and absorbance at 650 nm was subtracted as background.

In series [5] the test system is COS-1 cells. The experiment in a line: MTT assay (cell viability). Particulars: cell viability.
Description: as §5, §6, §7
In general terms: Formazan colour is commonly taken as a measure of viable cells.

The mark [6] stands for this setting: COS-1, luciferase reporter activity relative to control.

T3 sequence (Q08369 whole entry): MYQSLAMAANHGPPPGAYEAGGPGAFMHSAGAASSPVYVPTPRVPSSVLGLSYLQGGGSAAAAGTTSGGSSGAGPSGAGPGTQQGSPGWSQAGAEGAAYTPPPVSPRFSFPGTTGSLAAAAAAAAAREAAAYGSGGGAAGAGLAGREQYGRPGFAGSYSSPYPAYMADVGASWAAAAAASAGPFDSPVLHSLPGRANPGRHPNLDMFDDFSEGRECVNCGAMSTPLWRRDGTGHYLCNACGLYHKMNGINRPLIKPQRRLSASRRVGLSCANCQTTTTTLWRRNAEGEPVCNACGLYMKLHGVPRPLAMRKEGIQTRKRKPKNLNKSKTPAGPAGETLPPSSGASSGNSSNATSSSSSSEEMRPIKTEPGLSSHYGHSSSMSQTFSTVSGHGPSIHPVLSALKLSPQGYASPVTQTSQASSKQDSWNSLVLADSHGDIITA
T1 sequence (Q08369 whole entry): as above
T1 sequence (P42582 whole entry): as the sequence (P42582 whole entry) above

With `CCC(OC)c1ccc(OCc2c(-c3ccccc3)noc2C)cc1` (racemic) [Compound 34e, (rac)-4-[[4-(1-Methoxypropyl)phenoxy]methyl]-5-methyl-3-phenylisoxazole], in series [1], the activity at 3 µM was 79.7%. The activity at 3 µM in series [2] amounted to 104%. The activity at 3 µM in series [3] (setting [6]) worked out at 101%. In the series with COS-1 cells [4], the LDH.1µM was 1.31, the LDH.3µM is -0.22, the LDH.10µM is recorded as -0.78 and the LDH.30µM came out at 0.55. In the series on COS-1 cells [5], this compound gave an MTT.1µM of 102.33, an MTT.3µM of 95.44, an MTT.10µM of 86.07 and an MTT.30µM of 79.5.
Consider `CCN(CC)c1ccc(NC(=O)c2c(C)noc2-c2cc(C)on2)cc1` [Compound 3], for which, in series [1], the activity at 3 µM was determined as 75.5%. Besides, the activity at 3 µM in series [2] is 106%. Also, in series [3] (setting [6]), the activity at 3 µM turned out to be 96.7%. Further, the activity at 10 µM in series [3] (COS-1, 10 µM, luciferase reporter activity relative to control) is 102%. In the series with COS-1 cells [4], the LDH.1µM is 0.35, the LDH.3µM is listed as -0.67, the LDH.10µM is recorded as -1.59 and the LDH.30µM is listed as -1.83. In the series with COS-1 cells [5], this compound gave an MTT.1µM of 105.34, an MTT.3µM of 105.48, an MTT.10µM of 100.7 and an MTT.30µM of 92.68.
As to `Cc1onc(-c2ccccc2)c1C(=O)Nc1ccc2oc(-c3ccccc3)cc(=O)c2c1` [Compound 4g], the activity at 3 µM in series [1] was 62.6%. In addition, the activity at 3 µM in series [2] is 85.2%. The “GATA4 (% of control) Mean ± SD” value in series [3] (10 μM, COS-1 cells, 24 h) is reported as 66 % of control. For the same compound, in series [3] (setting [6]), the activity at 3 µM stood at 40.2%. Also, in the series on COS-1 cells [4], the LDH.1µM is listed as -0.29, the LDH.3µM is given as 0.38, the LDH.10µM is recorded as -0.94 and the LDH.30µM was -0.1. In the series on COS-1 cells [5], the MTT.1µM is listed as 109.72, the MTT.3µM is given as 101.99, the MTT.10µM was determined as 88.31 and the MTT.30µM was found to be 82.48.
`CCN(c1ccc(NC(=O)c2c(-c3ccccc3)noc2C)cc1)C(C)C` [Compound 4i, N-[4-[Ethyl(isopropyl)amino]phenyl]-5-methyl-3-phenylisoxazole-4-carboxamide]: in series [1], the activity at 3 µM was 64.9%. Further, the activity at 3 µM in series [2] turned out to be 55.3%. The activity at 3 µM in series [3] (setting [6]) was 84.1%. Further, in the series on COS-1 cells [4], the LDH.1µM came to 0.82, the LDH.3µM came to 0.18, the LDH.10µM is given as -0.77 and the LDH.30µM is -0.17. Also, in the series on COS-1 cells [5], the MTT.1µM is 100.09, the MTT.3µM is listed as 98.4, the MTT.10µM was found to be 87.88 and the MTT.30µM stood at 85.16.
With `Cc1onc(-c2ccccc2)c1C(=O)Nc1ccc(C#C[Si](C)(C)C)cc1` [Compound 4j, 5-Methyl-3-phenyl-N-[4-[(trimethylsilyl)ethynyl]phenyl]isoxazole-4-carboxamide], the activity at 3 µM in series [1] was 67.8%. Besides, in series [2], the activity at 3 µM was 98.2%. For the same compound, in series [3] (setting [6]), the activity at 3 µM was determined as 110%. In the series on COS-1 cells [4], the LDH.1µM is reported as 1.09, the LDH.3µM was determined as 1.13, the LDH.10µM is reported as 0.61 and the LDH.30µM was found to be 1.5. Also, in the series with COS-1 cells [5], the MTT.1µM was 104.97, the MTT.3µM came out at 104.95 and the MTT.10µM turned out to be 102.07.
`CCN(CC)c1ccc(NC(=O)c2snnc2-c2ccccc2)cc1` [Compound 47n]: the activity at 3 µM in series [2] was 71.1%. The activity at 3 µM in series [3] (setting [6]) was 92.4%. In the series with COS-1 cells [4], this compound gave an LDH.1µM of 1.44, an LDH.3µM of 1.32, an LDH.10µM of 0.75 and an LDH.30µM of 1.71. Moreover, in the series on COS-1 cells [5], the MTT.1µM is listed as 104.04, the MTT.3µM stood at 91.5, the MTT.10µM was 90.69 and the MTT.30µM turned out to be 79.72.
